How the values were obtained:
CD73 = target: T1, CD73 (Homo sapiens, UniProt P21589); type: biochemical; conditions: 1 mM NaH2PO4 in enzyme buffer, final AMP 15 uM, final CD73 0.3 nM
T1 construct: purchased R&D system
T1 sequence (P21589 27-549): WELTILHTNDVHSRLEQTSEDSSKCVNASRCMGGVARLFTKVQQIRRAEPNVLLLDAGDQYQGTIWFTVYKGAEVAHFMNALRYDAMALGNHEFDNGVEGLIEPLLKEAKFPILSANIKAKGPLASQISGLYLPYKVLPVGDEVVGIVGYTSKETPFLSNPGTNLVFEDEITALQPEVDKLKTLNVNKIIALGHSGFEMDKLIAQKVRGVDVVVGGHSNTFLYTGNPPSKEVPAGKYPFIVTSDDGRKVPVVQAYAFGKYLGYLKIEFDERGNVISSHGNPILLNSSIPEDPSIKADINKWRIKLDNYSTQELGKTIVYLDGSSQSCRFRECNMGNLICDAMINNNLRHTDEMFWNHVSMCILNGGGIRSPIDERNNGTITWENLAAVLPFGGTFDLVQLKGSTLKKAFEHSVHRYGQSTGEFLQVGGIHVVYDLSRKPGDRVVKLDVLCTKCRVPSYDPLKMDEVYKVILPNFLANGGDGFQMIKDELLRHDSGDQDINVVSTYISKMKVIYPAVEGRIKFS

[1] = target: T2, CD73 activity in MDA-MB-231-GFP cells (Homo sapiens, UniProt P21589); test: MDA-MB-231 Cell Based CD73 Activity Assay (DMEM); conditions: 3000 cells per well, DMEM medium with 10% human plasma, overnight compound treatment, AMP 200 uM
T2 construct: endogenous in cells; host or cells: MDA-MB-231-GFP cells
T2 sequence (P21589 27-549): T1 sequence (P21589 27-549)

Row | Structure (SMILES) | IC50 (CD73) [nM] | EC50 [1] [nM]
1 | CN(C)C(=O)c1cn2nc(-c3c[nH]c(=O)[nH]c3=O)cc([C@H]3C[C@@H]3c3ccc(F)cc3)c2n1 (racemic) [Example 197, 6-(2,4-dioxo-1H-pyrimidin-5-yl)-8-[(1S,2S)-2-(4-fluorophenyl)cyclopropyl]-N,N-dimethyl-imidazo[1,2-b]pyridazine-2-carboxamide] | 11 | 30.2
2 | O=C(c1cn2nc(-c3c[nH]c(=O)[nH]c3=O)cc([C@H]3C[C@@H]3c3ccc(F)cc3)c2n1)N1C[C@@H](F)[C@@H](F)C1 (racemic) [Example 200, 5-[2-[(3S,4R)-3,4-difluoropyrrolidine-1-carbonyl]-8-[(1S,2S)-2-(4-fluorophenyl)cyclopropyl]imidazo[1,2-b]pyridazin-6-yl]-1H-pyrimidine-2,4-dione] | > 250 | 809
3 | O=c1[nH]cc(-c2cc([C@H]3C[C@@H]3c3ccnc(C(F)(F)F)n3)c3nccn3n2)c(=O)[nH]1 (racemic) [Example 271, 5-(8-((2S,2S)-2-(2-(trifluoromethyl)pyrimidin-4-yl)cyclopropyl)imidazo[1,2-b]pyridazin-6-yl)pyrimidine-2,4(1H,3H)-dione] | 33.6 | 102
4 | O=c1[nH]cc(-c2cc([C@H]3C[C@@H]3c3ccc(OC(F)(F)F)cc3)c3ncc(F)n3n2)c(=O)[nH]1 (racemic) [Example 277, 5-(3-fluoro-8-((2S,2S)-2-(4-(trifluoromethoxy)phenyl)cyclopropyl)imidazo[1,2-b]pyridazin-6-yl)pyrimidine-2,4(1H,3H)-dione] | 3.77 | 79
5 | NC(=O)c1ccc([C@H]2C[C@@H]2c2cc(-c3c[nH]c(=O)[nH]c3=O)nn3ccnc23)cc1 (racemic) [Example 283, 4-((2S,2S)-2-(6-(2,4-dioxo-1,2,3,4-tetrahydropyrimidin-5-yl)imidazo[1,2-b]pyridazin-8-yl)cyclopropyl)benzamide] | 0.87 | 2.75
6 | O=c1[nH]cc(-c2cc([C@H]3C[C@@H]3c3cnc(C(F)(F)F)s3)c3nccn3n2)c(=O)[nH]1 (racemic) [Example 365, 5-(8-((2S,2S)-2-(2-(trifluoromethyl)thiazol-5-yl)cyclopropyl)imidazo[1,2-b]pyridazin-6-yl)pyrimidine-2,4(1H,3H)-dione] | 7.62 | 32.8
7 | O=c1[nH]cc(-c2cc([C@H]3C[C@@H]3c3nc(C(F)(F)F)cs3)c3nccn3n2)c(=O)[nH]1 (racemic) [Example 367, 5-(8-((2S,2S)-2-(4-(trifluoromethyl)thiazol-2-yl)cyclopropyl)imidazo[1,2-b]pyridazin-6-yl)pyrimidine-2,4(1H,3H)-dione] | 17.5 | 67.6
8 | O=c1[nH]cc(-c2cc([C@H]3C[C@@H]3c3ccc(C(F)F)cn3)c3nccn3n2)c(=O)[nH]1 (racemic) [Example 379, 5-(8-((1S,2S)-2-(5-(difluoromethyl)pyridin-2-yl)cyclopropyl)imidazo[1,2-b]pyridazin-6-yl)pyrimidine-2,4(1H,3H)-dione] | 1.98 | 5.89
9 | O=C(c1ccc([C@H]2C[C@@H]2c2cc(-c3c[nH]c(=O)[nH]c3=O)nn3c(F)cnc23)cc1)N1CC(F)(F)C1 (single isomer, unassigned) [Example 313] | – | 9.78
10 | O=c1[nH]cc(-c2cc([C@H]3C[C@@H]3c3cnn(C(F)F)c3)c3ncc(F)n3n2)c(=O)[nH]1 (single isomer, unassigned) [Example 371] | – | 17.9
11 | O=c1[nH]cc(-c2cc([C@H]3C[C@@H]3c3ccc(OC(F)(F)F)cn3)c3nccn3n2)c(=O)[nH]1 (single isomer, unassigned) [Example 373] | – | 9.61
12 | O=c1[nH]cc(-c2cc(N3C[C@H](O)C(F)(F)C3)c3nccn3n2)c(=O)[nH]1 (single isomer, unassigned) [Example 527] | 5.66 | 16.3
13 | O=c1[nH]cc(-c2cc(N3CCC4(C3)CC4(F)F)c3nccn3n2)c(=O)[nH]1 (stereo not drawn) [Example 192] | 6.41 | –
14 | O=c1[nH]cc(-c2cc(N3CC(OCC(F)(F)F)C(F)(F)C3)c3nccn3n2)c(=O)[nH]1 (stereo not drawn) [Example 203] | 3.03 | –
15 | COC(=O)[C@H]1[C@@H]2CN(c3cc(-c4c[nH]c(=O)[nH]c4=O)nn4ccnc34)C[C@@H]21 [Example 314, methyl (1R,5S,6r)-3-(6-(2,4-dioxo-1,2,3,4-tetrahydropyrimidin-5-yl)imidazo[1,2-b]pyridazin-8-yl)-3-azabicyclo[3.1.0]hexane-6-carboxylate] | > 250 | –
16 | O=c1[nH]cc(-c2cc(N3C[C@H]4CC[C@@H]3C4)c3nccn3n2)c(=O)[nH]1 [Example 642, 5-(8-((1R,4S)-2-azabicyclo[2.2.1]heptan-2-yl)imidazo[1,2-b]pyridazin-6-yl)pyrimidine-2,4(1H,3H)-dione] | – | 154

Further lines, results first:

Row | IC50 (CD73) [nM] | EC50 [1] [nM] | Structure (SMILES)
17 | 2.72 | 2.53 | O=c1[nH]cc(-c2cc([C@H]3C[C@@H]3c3ccc4cnn(CCC(F)(F)F)c4c3)c3nccn3n2)c(=O)[nH]1 (racemic) [Example 361, 5-(8-((1S,2S)-2-(1-(3,3,3-trifluoropropyl)-1H-indazol-6-yl)cyclopropyl)imidazo[1,2-b]pyridazin-6-yl)pyrimidine-2,4(1H,3H)-dione]
18 | 2.98 | 1 | N#Cc1nn(CC(F)(F)F)c2cc([C@H]3C[C@@H]3c3cc(-c4c[nH]c(=O)[nH]c4=O)nn4ccnc34)ccc12 (racemic) [Example 362, 6-((1S,2S)-2-(6-(2,4-dioxo-1,2,3,4-tetrahydropyrimidin-5-yl)imidazo[1,2-b]pyridazin-8-yl)cyclopropyl)-1-(2,2,2-trifluoroethyl)-1H-indazole-3-carbonitrile]
19 | 0.13 | 0.43 | O=C(NCC(F)(F)F)OC1CN(c2cc(-c3c[nH]c(=O)[nH]c3=O)nn3ncnc23)CC1(F)F (racemic) [Example 436, 1-(6-(2,4-dioxo-1,2,3,4-tetrahydropyrimidin-5-yl)-[1,2,4]triazolo[1,5-b]pyridazin-8-yl)-4,4-difluoropyrrolidin-3-yl (2,2,2-trifluoroethyl)carbamate]
20 | 1.05 | 2.04 | O=c1[nH]cc(-c2cc([C@H]3C[C@@H]3c3ccc(OCC(F)F)cn3)c3nccn3n2)c(=O)[nH]1 (racemic) [Example 590, 5-(8-((2S,2S)-2-(5-(2,2-difluoroethoxy)pyridin-2-yl)cyclopropyl)imidazo[1,2-b]pyridazin-6-yl)pyrimidine-2,4(1H,3H)-dione]
21 | 2.06 | 0.13 | O=c1[nH]cc(-c2cc([C@H]3C[C@@H]3c3cnc4cnn(CC(F)(F)F)c4c3)c3nccn3n2)c(=O)[nH]1 (racemic) [Example 614, 5-(8-((1S,2S)-2-(1-(2,2,2-trifluoroethyl)-1H-pyrazolo[4,3-b]pyridin-6-yl)cyclopropyl)imidazo[1,2-b]pyridazin-6-yl)pyrimidine-2,4(1H,3H)-dione]
22 | – | 2.52 | O=c1[nH]cc(-c2cc([C@H]3C[C@@H]3c3cc(OCC(F)(F)F)c4ncccc4c3)c3nccn3n2)c(=O)[nH]1 (racemic) [Example 732, 5-(8-((2S,2S)-2-(8-(2,2,2-trifluoroethoxy)quinolin-6-yl)cyclopropyl)imidazo[1,2-b]pyridazin-6-yl)pyrimidine-2,4(1H,3H)-dione]
23 | – | 0.38 | O=C1N(CC2(F)CC2)c2cc([C@H]3C[C@@H]3c3cc(-c4c[nH]c(=O)[nH]c4=O)nn4c(F)cnc34)ccc2C12CC2 (racemic) [Example 735, 5-(3-fluoro-8-((2S,2S)-2-(1′-((1-fluorocyclopropyl)methyl)-2′-oxospiro[cyclopropane-1,3′-indolin]-6′-yl)cyclopropyl)imidazo[1,2-b]pyridazin-6-yl)pyrimidine-2,4(1H,3H)-dione]
24 | – | 1.76 | O=C1N(CC(F)(F)F)c2cc([C@H]3C[C@@H]3c3cc(-c4c[nH]c(=O)[nH]c4=O)nn4ccnc34)c(F)cc2C12CC2 (racemic) [Example 748, 5-(8-((2S,2S)-2-(5′-fluoro-2′-oxo-1′-(2,2,2-trifluoroethyl)spiro[cyclopropane-1,3′-indolin]-6′-yl)cyclopropyl)imidazo[1,2-b]pyridazin-6-yl)pyrimidine-2,4(1H,3H)-dione]
25 | – | 0.1 | O=C1N(CC(F)(F)F)c2cc([C@H]3C[C@@H]3c3cc(-c4c[nH]c(=O)[nH]c4=O)nn4ccnc34)ccc2C12CC2 (single isomer, unassigned) [Example 391]
26 | – | 0.28 | O=C1N(CC(F)(F)F)c2cc([C@H]3C[C@@H]3c3cc(-c4c[nH]c(=O)[nH]c4=O)nn4c(Cl)cnc34)ccc2C12CC2 (single isomer, unassigned) [Example 740]
27 | – | 0.68 | O=C1N(CC(F)(F)F)c2cc([C@H]3C[C@@H]3c3cc(-c4c[nH]c(=O)[nH]c4=O)nn4c(Cl)c(Cl)nc34)ccc2C12CC2 (single isomer, unassigned) [Example 741]
28 | – | 0.07 | O=c1[nH]cc(-c2cc([C@H]3C[C@@H]3c3cc4c(cn3)cnn4CC(F)(F)F)c3ncc(F)n3n2)c(=O)[nH]1 [Example 611, 5-(3-fluoro-8-((2S,2S)-2-(1-(2,2,2-trifluoroethyl)-1H-pyrazolo[4,3-c]pyridin-6-yl)cyclopropyl)imidazo[1,2-b]pyridazin-6-yl)pyrimidine-2,4(1H,3H)-dione]

— US12110294B2, “CD73 compounds” (Gilead Sciences, Inc., priority 2020, dated 2024)
